This is an account of results in patent publication US9023789B2, “Amylin analogs and pharmaceutical compositions thereof” (Novo Nordisk A/S, priority 2012, dated 2015).

“Also recorded” adds a separate entry of the source. Read-outs that look alike come from different tables or passages of the source. Bridge positions count the residues as written; N and C are the ends. Ends that are not written are not given here.

In one data set the test system is Male Sprague-Dawley rats. Put plainly: ASSAY (XI) single subcutaneous administration, food intake monitored for 48 hours in rats. Type of data set: in vivo, rat. The note with it: for Food intake red (%) 0-24 h / Food intake red (%) 24-48 h: single s.c., compared to vehicle. The source says:
Assay (XI)—Effect from Single Subcutaneous Administration of Analogue on Plasma Calcium in Rats
Male Sprague-Dawley rats (Taconic Europe, ˜250 g at test date) were acclimatized to reversed day light cycle (lights on from 10 PM to 10 AM) and single housing in online food intake monitoring system (Ellegaard MBRose, Denmark) prior to study start. […] Data are illustrated in graphs as mean±SEM.

A further data set relates to Male Wistar rats. Put plainly: ASSAY (XII) effect from single subcutaneous administration on plasma calcium in rats. The format is in vivo, rat. The note with it: for Plasma calcium red (%) 0-12 h (maximal): single s.c., compared to vehicle. As to the method: Assay (XII)—Effect from Single Subcutaneous Administration of Analogue on Plasma Calcium in Rats
Male Wistar rats (Taconic Europe, ˜250 g at test date) were acclimatized to handling prior to the study. Rats were divided in groups of five and subcutaneously dosed with test compound at time=0. At time T=−15 min; 1 h, 2 h, 4 h, 7 h, 12 h, and 24 h a blood sample was obtained and heparin stabilized plasma was analysed for total calcium (Cobas, Hitachi). Data are illustrated in graphs as mean±SEM.

The test system of data set [1] is amylin receptor / calcitonin receptor. The note with it: background statement, cited from earlier work.
The subject of a further data set is Sprague Dawley (SD) rats. The data set can be described thus: ASSAY (I) efficacy testing on appetite (food intake) using an ad libitum fed rat model. Type of data set: in vivo. The conditions noted are these: rats, single subcutaneous 1000 nmol/kg injection. The source says:
Sprague Dawley (SD) rats from Taconic Europe, Denmark are used for the experiments. The rats have a body weight 200-250 g at the start of experiment. The rats arrive at least 10-14 days before start of experiment to allow acclimatization to experimental settings. During this period the animals are handled at least 2 times. After arrival rats are housed individually for one week in a reversed light/dark phase (meaning that lights are off during daytime and on during nighttime) for two weeks. Since rats are normally active and eat their major part of their daily food intake during the dark period, rats are dosed in the morning right before lights are turned off. This set-up results in the lowest data variation and highst test sensitivity. The experiment is conducted in the rats' home cages and rats have free access to food and water throughout the acclimatization period and the experiment period. Each dose of derivative is tested in a group of 5-8 rats. A vehicle group of 6-8 rats is included in each set of testing. Rats are dosed once according to body weight with a 0.01-3 mg/kg solution administered intraperitoneally (ip), orally (po) or subcutaneously (sc). The time of dosing is recorded for each group. After dosing, the rats are returned to their home cages, where they then have access to food and water. The food consumption is recorded individually continuously by online registration or manually every hour for 7 hours, and then after 24 h and sometimes 48 h. At the end of the experimental session, the animals are euthanized.
The individual data are recorded in Microsoft excel sheets. Outliers are excluded after applying the Grubbs statistical evaluation test for outliers, and the result is presented graphically using the GraphPad Prism program.

`CC(C)C[C@H](NC(=O)[C@H](CCCCN)NC(=O)CNC(=O)[C@H](CC(C)C)NC(=O)[C@@H](NC(=O)[C@@H]1CSSC[C@H](N)C(=O)N[C@@H](CO)C(=O)N[C@@H](CC(N)=O)C(=O)N[C@@H](CC(C)C)C(=O)N[C@@H](CO)C(=O)N[C@@H]([C@@H](C)O)C(=O)N1)C(C)C)C(=O)N[C@@H](CO)C(=O)N[C@@H](CCC(N)=O)C(=O)N[C@@H](CCC(=O)O)C(=O)N[C@@H](CC(C)C)C(=O)N[C@@H](Cc1c[nH]cn1)C(=O)N[C@@H](CCCCN)C(=O)N[C@@H](CC(C)C)C(=O)N[C@@H](CCC(N)=O)C(=O)N[C@H](C(=O)N[C@@H](Cc1ccc(O)cc1)C(=O)N1CCC[C@H]1C(=O)N[C@@H](CCCNC(=N)N)C(=O)N[C@H](C(=O)N[C@@H](CC(N)=O)C(=O)N[C@H](C(=O)NCC(=O)N[C@@H](CO)C(=O)NCC(=O)N[C@H](C(=O)N1CCC[C@H]1C(N)=O)[C@@H](C)O)[C@@H](C)O)[C@@H](C)O)[C@@H](C)O` [salmon calcitonin, reference compound]: in the data set with Male Sprague-Dawley rats (30 nmol/kg), the “Food intake red (%) 0-24 h” value amounted to 87% and the “Food intake red (%) 24-48 h” value worked out at 19%. For the same molecule, the “food intake monitored over 48 hours” value in the data set with Male Sprague-Dawley rats (single subcutaneous administration, 30 nmol/kg, versus vehicle) is “reduction of food intake; also recorded: reduces food intake”. In addition, the plasma calcium result in the data set with Male Wistar rats (dose 30 nmol/kg) is listed as “below 1.7 mM”. Further, the “Plasma calcium red (%) 0-12 h (maximal)” value in the data set with Male Wistar rats (3 nmol/kg) worked out at 35%. In addition, the “Plasma calcium red (%) 0-12 h (maximal)” value with Male Wistar rats (30 nmol/kg) stood at 39%.
As to “Pramlintide (KCNTATCATQRLANFLVHSSNNFGPILPPTNVGSNTY-NH2; disulfide 2-7; UniProt P10997 34-70, looked up, variant A25P S28P S29P) [reference compound]”, the “Food intake red (%) 0-24 h” value with Male Sprague-Dawley rats (1000 nmol/kg) was 25%. In addition, the “Food intake red (%) 24-48 h” value in the data set on Male Sprague-Dawley rats (1000 nmol/kg) worked out at 0%. Also, the “potency on the amylin receptor relative to the calcitonin receptor” value in data set [1] is recorded as “approximately 14 times”; in data set [1] (listed as pramlintide), 14 times. Moreover, in the data set on Sprague Dawley (SD) rats, the “reduction of food intake” value is recorded as 25%. For the same molecule, the “Plasma calcium red (%) 0-12 h (maximal)” value in the data set on Male Wistar rats (1000 nmol/kg) was determined as 28%.
